Test system: 3T3L1-derived differentiated mouse adipocytes
Assay type: cell-based
Experimental: According to the invention 3T3L1-derived differentiated mouse adipocytes can be used as appropriate cell-system. These cells are treated with fractions of human hemofiltrate and identified using a glycerol-estimation method (GPO-Trinder reagent, Sigma, Deisenhofen, Germany) lipolytic activity. […] It was subsequently isolated in several chromatographic steps using reverse-phase and cation-exchange chromatographic material. 3T3L1 cells were obtained from ATCC. They were grown in DMEM with 10% FCS, penicillin, streptomycin, and L-glutamine for proliferation. For differentiation into the mature adipocyte phenotype, the cells were plated onto 96 well plates (Costar) and treated for three days with differentiation medium (DMEM with 10% FCS, dexamethasone, insulin, L-glutamine and 8-Br-cAMP) and subsequently for three to six days with sustainment medium (DMEM with 10% FCS and L-glutamine). Cells differentiated as described above were then treated for five hours with the hemofiltrate fractions diluted in serum-free medium. An aliquot of the cell supernatant was mixed with the glycerol-estimation-solution (GPO-Trinder Reagent, Sigma, Garching, Germany) and incubated for 15 minutes. Then the absorbance was measured at 540 nm in a 96 well plate ELISA reader (Dynex). […] The colored product is measured at 540 nm in a spectrophotometer. […]

| Compound | EC50 |
| --- | --- |
| CSCC[C@H](NC(=O)[C@H](CCCNC(=N)N)NC(=O)[C@H](Cc1ccc(O)cc1)NC(=O)[C@@H]1CCCN1C(=O)CNC(=O)[C@H](CCC(=O)O)NC(=O)[C@H](CC(=O)O)NC(=O)[C@H](CCCCN)NC(=O)[C@H](CCCCN)NC(=O)[C@H](CCC(=O)O)NC(=O)[C@H](C)N)C(=O)N[C@@H](CCC(=O)O)C(=O)N[C@@H](Cc1c[nH]cn1)C(=O)N[C@@H](Cc1ccccc1)C(=O)N[C@@H](CCCNC(=N)N)C(=O)N[C@@H](Cc1c[nH]c2ccccc12)C(=O)NCC(=O)N[C@@H](CO)C(=O)N1CCC[C@H]1C(=O)N1CCC[C@H]1C(=O)N[C@@H](CCCCN)C(=O)N[C@@H](CC(=O)O)C(=O)O [β-MSH, aekkdegp yrmehfrwgs ppkd] | ~0.02 µM |
| CSCC[C@H](NC(=O)[C@H](CCCNC(=N)N)NC(=O)[C@H](Cc1ccc(O)cc1)NC(=O)[C@@H]1CCCN1C(=O)CNC(=O)[C@H](CCC(=O)O)NC(=O)[C@H](CC(=O)O)NC(=O)[C@H](CCCCN)NC(=O)[C@H](CCCCN)NC(=O)[C@H](CCC(=O)O)NC(=O)[C@H](C)NC(=O)[C@H](C)NC(=O)[C@@H](N)C(C)C)C(=O)N[C@@H](CCC(=O)O)C(=O)N[C@@H](Cc1c[nH]cn1)C(=O)N[C@@H](Cc1ccccc1)C(=O)N[C@@H](CCCNC(=N)N)C(=O)N[C@@H](Cc1c[nH]c2ccccc12)C(=O)NCC(=O)N[C@@H](CO)C(=O)N1CCC[C@H]1C(=O)N1CCC[C@H]1C(=O)N[C@@H](CCCCN)C(=O)N[C@@H](CC(=O)O)C(=O)O [vaaekkdegp yrmehfrwgs ppkd] | ~0.02 µM |
